From patent US20240122890A1, “USE OF EXOGENOUS KETONE ESTERS TO INDUCE WEIGHT LOSS IN MAMMALS” (Buck Institute for Research on Aging, priority 2021, published 2024)

Assays:
[1] = Body weight of mice swapped to a diet containing 20% KE; type: in vivo, C57/BL6 mice; details: diet containing 20% KE (by weight); n=5 female
Source text: Male (n=10) and female (n=10) C57/BL6 mice were fed control diet for one week. The next week n=5 male and n=5 female mice were swapped to a diet containing 20% KE (by weight) mixed into a custom-made diet.

[2] = Waking body weight with daily ketone ester consumption in a person with obesity; type: in vivo, human; details: for Weight (waking body weight): daily 25 g KE
Method: This example describes the effect of daily ketone ester consumption in a person with obesity (BMI=42.5 kg/m^2). The subject began consuming one 25 g serving of KE each morning on Nov. 15, 2021, and maintained daily consumption each morning for 7 weeks. The KE was in a commercially available consumer-friendly beverage formulation (Juvenescence, NJ, USA). Body weight was recorded by the subject after waking each morning (see, e.g., Table 1 and FIG. 3). […] The highest body weight in this period was on Nov. 15, 2021 (288 lbs), and the lowest was on Day Dec. 21, 2021 (254 lbs), giving a total weight loss of 34 lbs (11.8% of starting body mass)

[3] = 25 g KE each morning, highest to lowest body weight

CCCCCC(=O)OCC[C@@H](C)OC(=O)CCCCC [KE, bis hexanoyl (R)-1,3-butanediol]
deaths [1]: Two female animals died due to rapid weight loss
lowest body weight in this period ([2]; 25 g KE each morning, Dec. 21, 2021): 254 lbs
highest body weight in this period ([2]; 25 g KE each morning, Nov. 15, 2021): 288 lbs
total weight loss [2, 3]: 34 lbs
total weight loss, % of starting body mass [2, 3]: 11.8%
Weight (waking body weight) ([2]; 1 Dec. 2021): 272.5 lbs
Weight (waking body weight) ([2]; 1 Jan. 2022): 258 lbs
Weight (waking body weight) ([2]; 2 Dec. 2021): 272.5 lbs
Weight (waking body weight) ([2]; 2 Jan. 2022): 257 lbs
Weight (waking body weight) ([2]; 3 Dec. 2021): 272 lbs
Weight (waking body weight) ([2]; 3 Jan. 2022): 255.5 lbs
Weight (waking body weight) ([2]; 4 Dec. 2021): 271 lbs
Weight (waking body weight) ([2]; 4 Jan. 2022): 255.5 lbs
Weight (waking body weight) ([2]; 5 Dec. 2021): 270 lbs
Weight (waking body weight) ([2]; 5 Jan. 2022): 256 lbs
Weight (waking body weight) ([2]; 6 Dec. 2021): 268.5 lbs
Weight (waking body weight) ([2]; 7 Dec. 2021): 267.5 lbs
Weight (waking body weight) ([2]; 8 Dec. 2021): 267 lbs
Weight (waking body weight) ([2]; 9 Dec. 2021): 266 lbs
Weight (waking body weight) ([2]; 10 Dec. 2021): 265.5 lbs
Weight (waking body weight) ([2]; 11 Dec. 2021): 264.5 lbs
Weight (waking body weight) ([2]; 12 Dec. 2021): 264 lbs
Weight (waking body weight) ([2]; 13 Dec. 2021): 262.5 lbs
Weight (waking body weight) ([2]; 14 Dec. 2021): 261.5 lbs
Weight (waking body weight) ([2]; 15 Dec. 2021): 260.5 lbs
Weight (waking body weight) ([2]; 15 Nov. 2021): 288 lbs
Weight (waking body weight) ([2]; 16 Dec. 2021): 258 lbs
Weight (waking body weight) ([2]; 16 Nov. 2021): 286.5 lbs
Weight (waking body weight) ([2]; 17 Dec. 2021): 256 lbs
Weight (waking body weight) ([2]; 17 Nov. 2021): 284 lbs
Weight (waking body weight) ([2]; 18 Dec. 2021): 256 lbs
Weight (waking body weight) ([2]; 18 Nov. 2021): 283 lbs
Weight (waking body weight) ([2]; 19 Dec. 2021): 255 lbs
Weight (waking body weight) ([2]; 19 Nov. 2021): 283 lbs
Weight (waking body weight) ([2]; 20 Dec. 2021): 255 lbs
Weight (waking body weight) ([2]; 20 Nov. 2021): 282.5 lbs
Weight (waking body weight) ([2]; 21 Dec. 2021): 254 lbs
Weight (waking body weight) ([2]; 21 Nov. 2021): 281.5 lbs
Weight (waking body weight) ([2]; 22 Dec. 2021): 256 lbs
Weight (waking body weight) ([2]; 22 Nov. 2021): 279.5 lbs
Weight (waking body weight) ([2]; 23 Dec. 2021): 258 lbs
Weight (waking body weight) ([2]; 23 Nov. 2021): 279 lbs
Weight (waking body weight) ([2]; 24 Dec. 2021): 257 lbs
Weight (waking body weight) ([2]; 24 Nov. 2021): 278 lbs
Weight (waking body weight) ([2]; 25 Dec. 2021): 258 lbs
Weight (waking body weight) ([2]; 25 Nov. 2021 (first line of this date)): 278 lbs
Weight (waking body weight) ([2]; 25 Nov. 2021 (second line of this date)): 276.5 lbs
Weight (waking body weight) ([2]; 26 Dec. 2021): 260 lbs
Weight (waking body weight) ([2]; 26 Nov. 2021): 275 lbs
Weight (waking body weight) ([2]; 27 Dec. 2021): 258 lbs
Weight (waking body weight) ([2]; 27 Nov. 2021): 275 lbs
Weight (waking body weight) ([2]; 28 Dec. 2021): 257 lbs
Weight (waking body weight) ([2]; 28 Nov. 2021): 273.5 lbs
Weight (waking body weight) ([2]; 29 Dec. 2021): 258 lbs
Weight (waking body weight) ([2]; 29 Nov. 2021): 273 lbs
Weight (waking body weight) ([2]; 30 Dec. 2021): 260.5 lbs
Weight (waking body weight) ([2]; 30 Nov. 2021): 273 lbs
Weight (waking body weight) ([2]; 31 Dec. 2021): 260 lbs
